US20230165251A1, “SUBSTITUTED TOLYL FUNGICIDES AND THEIR MIXTURES” (FMC Corporation, priority 2020, published 2023)

Key:
[1] = system: Puccinia recondita f. sp. tritici; assay: Test B: preventive spray on wheat seedlings, wheat leaf rust; format: in vivo; conditions: for pest or weed control at 10 ppm: Puccinia recondita, 192 h, read-out: Test B disease control rating
From the text: (§1) General protocol for preparing test suspensions for Tests A-F: the test compounds were first dissolved in acetone in an amount equal to 3% of the final volume and then suspended at the desired concentration (in ppm) in acetone and purified water (50/50 mix by volume) containing 250 ppm of the surfactant PEG400 (polyhydric alcohol esters). The resulting test suspensions were then used in Tests A-F.
The test solution was sprayed to the point of run-off on wheat seedlings. The following day the seedlings were inoculated with a spore suspension of Puccinia recondita f. sp. tritici (the causal agent of wheat leaf rust) and incubated in a saturated atmosphere at 20° C. for 24 h, and then moved to a growth chamber at 20° C. for 7 days, after which time disease ratings were made.
(§2) A rating of 100 indicates 100% disease control and a rating of 0 indicates no disease control (relative to the controls). A dash (-) indicates the compound was not tested.

[2] = system: Phakopsora pachyrhizi; assay: Test D: preventive spray on soybean seedlings, Asian soybean rust; format: in vivo; conditions: Rate 10 ppm; for pest or weed control at 10 ppm: Phakopsora pachyrhizi, 216 h, read-out: Test D disease control rating
From the text: as §1
The test solution was sprayed to the point of run-off on soybean seedlings. The following day the seedlings were inoculated with a spore suspension of Phakopsora pachyrhizi (the causal agent of Asian soybean rust) and incubated in a saturated atmosphere at 22° C. for 24 h and then moved to a growth chamber at 22° C. for 8 days, after which time visual disease ratings were made.
as §2

Row | Molecule | Test B disease control rating ([1]; Rate 10 ppm) [%] | Test D disease control rating [2] [%] | pest or weed control at 10 ppm ([1]; Rate 10 ppm) [%] | pest or weed control at 10 ppm [2] [%] | Test B disease control rating ([1]; Rate 2 ppm) [%]
1 | COC(=O)NCc1cc(-c2cn(-c3c(F)cc(OC)cc3F)nn2)ccc1C [compound 130] | 68 | 0 | – | – | –
2 | methyl N-[[5-[1-[2,6-difluoro-4-(2-propyn-1-yloxy)phenyl]-1H-pyrazol-3-yl]-2-methylphenyl]methyl]carbamate [Compound 30] | 98 | – | – | – | –
3 | COC(=O)NCc1cc(-c2ccn(-c3c(F)cc(Br)cc3Cl)n2)ccc1C [compound 50] | 100 | 100 | – | – | –
4 | COC(=O)NCc1cc(-c2cn(-c3c(OC)cc(OC)cc3OC)nn2)ccc1C [compound 127] | 0 | 0 | – | – | –
5 | COC(=O)NCc1cc(-c2cn(-c3c(Br)cc(OC)cc3[N+](=O)[O-])nn2)ccc1C [compound 129] | 0 | 0 | – | – | –
6 | COC(=O)NCc1cc(-c2ccn(-c3c(F)cc(CF)cc3F)n2)ccc1C [compound 77] | 100 | 100 | – | – | –
7 | COC(=O)NCc1cc(-c2ccn(-c3c(Cl)cc(Cl)cc3Cl)n2)ccc1C [compound 57] | 74 | 100 | – | – | –
8 | COC(=O)NCc1cc(-c2ccn(-c3c(F)cc(N4CCCC4)cc3F)n2)ccc1C [compound 150] | 68 | 0 | – | – | –
9 | COC(=O)NCc1cc(-c2ccn(-c3c(Br)cccc3I)n2)ccc1C [compound 52] | 0 | 99 | – | – | –
10 | COC(=O)NCc1cc(-c2ccn(-c3c(F)cc(C4CC4(F)F)cc3F)n2)ccc1C (stereo not shown) [Compound 89, methyl N-[[5-[1-[4-(2,2-difluorocyclopropyl)-2,6-difluorophenyl]-1H-pyrazol-3-yl]-2-methylphenyl]methyl]carbamate] | – | – | 100 | 100 | –
11 | CC=Cc1cc(F)c(-n2ccc(-c3ccc(C)c(CNC(=O)OC)c3)n2)c(F)c1 [compound 147] | 99 | 100 | – | – | –
12 | COC(=O)NCc1cc(-c2ccn(-c3c(F)cc(N4CCN(C)CC4)cc3F)n2)ccc1C [compound 148] | 0 | 0 | – | – | –
13 | COC(=O)NCc1cc(-c2ccn(-c3c(F)cc(N(C)C)cc3F)n2)ccc1C [compound 152] | 98 | 99 | – | – | –
14 | COC(=O)NCc1cc(-c2ccn(-c3c(F)cccc3I)n2)ccc1C [compound 45] | 0 | 100 | – | – | –
15 | methyl N-[[5-[2-[2,6-difluoro-4-(1-methylethyl)phenyl]-2H-1,2,3-triazol-4-yl]-2-methylphenyl]methyl]carbamate [Compound 108] | – | – | – | – | 100
16 | CCCc1cc(F)c(-n2ccc(-c3ccc(C)c(CNC(=O)OC)c3)n2)c(F)c1 [compound 145] | 100 | 100 | – | – | –
17 | CCc1cc(F)c(-n2ccc(-c3ccc(C)c(CNC(=O)OC)c3)n2)c(F)c1 [compound 144] | 100 | 100 | – | – | –
18 | COC(=O)NCc1cc(-c2ccn(-c3c(Cl)cc([N+](=O)[O-])cc3Cl)n2)ccc1C [compound 54] | 0 | 0 | – | – | –
19 | COC(=O)NCc1cc(-c2ccn(-c3c(F)cc(N)cc3Cl)n2)ccc1C [compound 39] | 0 | 0 | – | – | –
20 | COC(=O)NCc1cc(-c2ccn(-c3c(F)cc(C4OCCO4)cc3F)n2)ccc1C [compound 133] | 99 | 100 | – | – | –
21 | COC(=O)NCc1cc(-c2ccn(-c3c(C)cc(N)cc3C)n2)ccc1C [compound 38] | 0 | 0 | – | – | –
22 | COC(=O)NCc1cc(-c2ccn(-c3c(F)cc(N4CCCCC4)cc3F)n2)ccc1C [compound 151] | 68 | 19 | – | – | –
23 | C=Cc1cc(F)c(-n2ccc(-c3ccc(C)c(CNC(=O)OC)c3)n2)c(F)c1 [compound 146] | 100 | 100 | – | – | –
24 | COC(=O)NCc1cc(-c2ccn(-c3c(C)cc(OC)cc3C)n2)ccc1C [compound 40] | 0 | 99 | – | – | –
25 | COC(=O)NCc1cc(-c2ccn(-c3c(F)cc(OC)cc3OC)n2)ccc1C [compound 34] | 28 | 96 | – | – | –

Row | Molecule | Test B disease control rating ([1]; Rate 10 ppm) [%] | Test D disease control rating [2] [%] | pest or weed control at 10 ppm ([1]; Rate 10 ppm) [%] | pest or weed control at 10 ppm [2] [%] | Test B disease control rating ([1]; Rate 2 ppm) [%]
26 | COC(=O)NCc1cc(-c2ccn(-c3c(F)cc(OCC(F)(F)F)cc3F)n2)ccc1C [compound 22] | 99 | 100 | – | – | –
27 | COC(=O)NCc1cc(-c2ccn(-c3c(F)cc(N4CCOCC4)cc3F)n2)ccc1C [compound 149] | 83 | 99 | – | – | –
28 | COC(=O)NCc1cc(-c2ccn(-c3c(F)cc(I)cc3SC)n2)ccc1C [compound 26] | 73 | 87 | – | – | –
29 | COC(=O)NCc1cc(-c2ccn(-c3c(Cl)cc(Br)cc3Cl)n2)ccc1C [compound 56] | 80 | 100 | – | – | –
30 | COC(=O)NCc1cc(-c2ccn(-c3c(Br)cc(I)cc3Br)n2)ccc1C [compound 136] | 19 | 59 | – | – | –
31 | COC(=O)NCc1cc(-c2ccn(-c3c(Cl)cccc3I)n2)ccc1C [compound 59] | 45 | 87 | – | – | –
32 | COC(=O)NCc1cc(-c2ccn(-c3c(C)cccc3Br)n2)ccc1C [compound 61] | 68 | 97 | – | – | –
33 | COC(=O)NCc1cc(-c2ccn(-c3c(C)cc(Cl)cc3C)n2)ccc1C [compound 49] | 68 | 99 | – | – | –
34 | COC(=O)NCc1cc(-c2cn(-c3c(Cl)cc(OC)cc3Cl)nn2)ccc1C [compound 123] | 0 | 0 | – | – | –
35 | COC(=O)NCc1cc(-c2ccn(-c3c(Cl)cccc3Br)n2)ccc1C [compound 60] | 68 | 100 | – | – | –
36 | COC(=O)NNc1cc(-c2ccn(-c3c(F)cccc3F)n2)ccc1C [Compound 154] | – | – | 0 | 25 | –
37 | COC(=O)NCc1cc(-c2ccn(-c3c(F)cc(SC)cc3F)n2)ccc1C [compound 27] | 99 | 100 | – | – | –
38 | COC(=O)NCc1cc(-c2cn(-c3c(F)cc(Br)cc3F)nn2)ccc1C [compound 126] | 57 | 0 | – | – | –
39 | COC(=O)NCc1cc(-c2ccn(-c3c(F)cc([N+](=O)[O-])cc3Cl)n2)ccc1C [compound 37] | 26 | 0 | – | – | –
40 | CNc1cc(F)c(-n2ccc(-c3ccc(C)c(CNC(=O)OC)c3)n2)c(F)c1 [compound 36] | 68 | 100 | – | – | –
41 | CO/N=C(/C)c1cc(F)c(-n2ccc(-c3ccc(C)c(CNC(=O)OC)c3)n2)c(F)c1 [Compound 99, methyl (Z)-N-[[5-[1-[2,6-difluoro-4-[1-(methoxyimino)ethyl]phenyl]-1H-pyrazol-3-yl]-2-methylphenyl]methyl]carbamate] | – | – | 100 | 100 | –
42 | COC(=O)NCc1cc(-c2ccn(-c3c(C)cc(Br)cc3C)n2)ccc1C [compound 48] | 68 | 99 | – | – | –
43 | CO/N=C(\C)c1cc(F)c(-n2ccc(-c3ccc(C)c(CNC(=O)OC)c3)n2)c(F)c1 [Compound 83, methyl (E)-N-[[5-[1-[2,6-difluoro-4-[1-(methoxyimino)ethyl]phenyl]-1H-pyrazol-3-yl]-2-methylphenyl]methyl]carbamate] | – | – | 100 | 100 | –
44 | COC(=O)NCc1cc(-c2cn(-c3c(Br)cc(OC)cc3Br)nn2)ccc1C [compound 128] | 0 | 0 | – | – | –
45 | COC(=O)NCc1cc(-c2ccn(-c3c(F)cc(Cl)cc3Cl)n2)ccc1C [compound 51] | 100 | 100 | – | – | –
46 | COC(=O)NCc1cc(-c2ccn(-c3c(F)cccc3Cl)n2)ccc1C [compound 47] | 74 | 100 | – | – | –
47 | COC(=O)NCc1cc(-c2cn(-c3c(F)cc(I)cc3F)nn2)ccc1C [compound 125] | 68 | 0 | – | – | –
48 | COC(=O)NCc1cc(-c2cn(-c3c(F)cc(C)cc3F)nn2)ccc1C [compound 119] | 100 | 0 | – | – | –
49 | COC(=O)NCc1cc(-c2ccn(-c3c(C)cc([N+](=O)[O-])cc3C)n2)ccc1C [compound 35] | 0 | 0 | – | – | –
50 | methyl N-[[5-[1-[2,6-dichloro-4-(1,1-dimethylethyl)phenyl]-1H-pyrazol-3-yl]-2-methylphenyl]methyl]carbamate [Compound 135] | 86 | – | – | – | –
